Assay results: patent publication US10555987B2, “GHRH agonists for the treatment of ischemic disorders” (UNIVERSITY OF MIAMI, priority 2012, dated 2020)
Where “and” joins values, the source holds several entries; their conditions need not be identical. Equal values may be shown once. Non-standard residues stand in square brackets, D forms with d. Residues, ends and D or L forms follow the SMILES beside them. *: point of attachment. Desaminotyrosyl = O=C(CCc1ccc(O)cc1)*; NMeY = CN[C@@H](Cc1ccc(O)cc1)C(=O)O; Agmatine = N=C(N)NCCCCN*; Nle = CCCC[C@H](N)C(=O)O; Orn = NCCC[C@H](N)C(=O)O; dAbu = CC[C@@H](N)C(=O)O; Abu = CC[C@H](N)C(=O)O; Ava = NCCCCC(=O)O; GABA = NCCCC(=O)O

Experiments:
GHRH receptor [1] = target: T1, GHRH receptor (Homo sapiens, UniProt Q02643); assay: GHRH receptor binding, competition with 125I-labeled [His1,Nle27]hGHRH(1-32)NH2, human pituitary membrane homogenates (Table 6); design: Normal human pituitaries were purchased from the National Hormone and Peptide Program; tissue National Hormone and Peptide Program (A.F. Parlow, Harbor-UCLA Medical Center, Torrance, Calif.); host or cells: normal human pituitary, membrane fraction; conditions: GHRH(1-29) = 1, Table 6
T1 sequence (Q02643 23-423): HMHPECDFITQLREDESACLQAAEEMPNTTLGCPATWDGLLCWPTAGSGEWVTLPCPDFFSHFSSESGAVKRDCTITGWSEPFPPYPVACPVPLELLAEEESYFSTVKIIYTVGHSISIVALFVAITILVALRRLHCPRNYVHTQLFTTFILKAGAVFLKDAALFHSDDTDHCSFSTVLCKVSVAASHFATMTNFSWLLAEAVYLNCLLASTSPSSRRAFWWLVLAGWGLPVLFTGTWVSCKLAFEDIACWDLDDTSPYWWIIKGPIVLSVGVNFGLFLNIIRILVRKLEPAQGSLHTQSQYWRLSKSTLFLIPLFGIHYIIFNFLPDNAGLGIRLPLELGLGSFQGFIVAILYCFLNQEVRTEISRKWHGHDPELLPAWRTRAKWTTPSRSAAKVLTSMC
Excerpt: (§1) Normal human pituitaries were purchased from the National Hormone and Peptide Program (A.F. Parlow, Los Angeles, County Harbor-UCLA Medical Center, Torrance, Calif.).

GH release [2] = assay: GH releasing potency in vivo, subcutaneous administration (Example 14, Table 12); design: species or system rat; conditions: s.c.; for Serum GH level at selected time after injection (ng/ml), 0 min / Serum GH level at selected time after injection (ng/ml), 15 min / Serum GH level at selected time after injection (ng/ml), 30 min: male rats, dose 3 μg/kg, mean ± SEM
Summary of the method: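 Potency is expressed relative to GHRH(1-29)NH2 and JI-38 (each = 1), via equivalent GHRH(1-29)NH2 dose read from a standard curve. Peptides in 5% mannitol given i.v. or s.c. to anaesthetised male Sprague-Dawley rats (200-250 g); serum GH measured by ELISA at selected times.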

GH release [3] = assay: In vivo endocrine activity, GH release after intravenous administration (Table 8); conditions: rat, i.v. injection
Method: In vivo tests on endocrine activity of new GHRH agonists (Intravenous administration). For in vivo tests based on intravenous administration, adult male Sprague-Dawley rats were anesthetized with pentobarbital (6 mg/100/g, b.w.), and GHRH agonists were injected 20 minutes after the injection of pentobarbital. Blood samples were taken from the jugular vein (pretreated level), immediately after hGHRH(1-29)NH2 injection (as a control) or after hGHRH analogs injection. Blood samples were taken from the jugular vein 5, 15 and 30 minutes after the injection. The blood samples were centrifuged, plasma was removed and the GH level was measured by ELISA.

GH release [4] = assay: GH releasing potency in vivo, intravenous administration (Example 14, Table 13); design: species or system rat; conditions: i.v.
Method: Male Sprague-Dawley rats, weighing 200-250 g, were purchased from Charles River Laboratory (Wilmington, Mass.) and used for experiments. All animal procedures were approved by the Veterans Affairs Animal Care and Use Committee and were conducted in accordance with additional institutional guidelines as well. Briefly, groups of 5-6 animals were used in each experiment. The rats were anesthetized with 50 mg/kg of sodium pentobarbital (Nembutal, Lundbeck Inc., Deerfield, Ill.). Twenty min after inducing anesthesia, GHRH(1-29)NH2, JI-38, or new analogs were injected into the animals intravenously (i.v.) or subcutaneously (s.c.). The peptides were dissolved in 0.01 M acetic acid to get 1 μg/μl stock solution, and then diluted with 5% mannitol. Control rats received 5% mannitol only. Blood samples were collected from the jugular vein at selected times and were used for serum preparation. Concentrations of GH in rat sera were determined by ELISA. The relative potencies of tested peptides were calculated using GHRH(1-29)NH2 and JI-38 for comparison, whose potency was defined as 1. The equivalent dosage of GHRH(1-29)NH2 to reach the same level of serum growth hormone release after injection of the specific tested peptide was determined from a GHRH(1-29)NH2 standard curve using Origin 6.0 software. […] Serum GH was determined using the rat Growth Hormone ELISA kit (ALPCO Diagnostics, Mill Valley, Calif.) according to the manufacturer's instruction. Absorbance at 405 nm was measured by a Victor 3 Multi-label Counter (Perkin-Elmer, Waltham, Md.).

GH release [5] = assay: In vivo endocrine activity, GH release after subcutaneous administration (Table 9); conditions: rat; for GH releasing potency relative to JI-38 (=1): subcutaneous (s.c.) injection
Method: Subcutaneous Administration. Adult male rats were used and anesthetized with pentobarbital (6 mg/100 g, b.w.), by i.p. injection. […] Blood samples were taken from the jugular vein 5, 15 and/or 30 minutes after the injection. The blood samples were centrifuged, plasma was removed and the GH level was measured byELISA. The results are summarized in terms of potency in Table 9.

GHRH receptor [6] = target: T1, GHRH receptor; assay: Receptor binding in vitro, 125I-labeled [His1,Nle27]-hGHRH(1-32)NH2, membrane receptors of human anterior pituitary cells (Table 14); conditions: for Relative affinity (Binding potency) compared to JI-38: JI-38 = 1; for Relative affinity (Binding potency) compared to hGHRH(1-29): hGHRH(1-29)NH2 = 1
GHRH receptor [7] = target: T1, GHRH receptor; assay: GHRH receptor binding, competition with 125I-labeled JV-1-42, human pituitary membrane homogenates (Table 7); design: Normal human pituitaries were purchased from the National Hormone and Peptide Program; tissue National Hormone and Peptide Program (A.F. Parlow, Harbor-UCLA Medical Center, Torrance, Calif.); host or cells: normal human pituitary, membrane fraction; conditions: JI-38 = 1, Table 7
Excerpt: as §1

Relative affinity (Binding potency) compared to JI-38 (GHRH receptor [6])	Relative affinity (Binding potency) compared to hGHRH(1-29) (GHRH receptor [6])	Relative affinity (Binding potency) vs JI-38 (GHRH receptor [7])	SMILES	Serum GH level at selected time after injection (ng/ml), 0 min (GH release [2])	Serum GH level at selected time after injection (ng/ml), 15 min (GH release [2])	Serum GH level at selected time after injection (ng/ml), 30 min (GH release [2])	Relative potency compared to GHRH(1-29), 15 min (GH release [2])	Relative potency compared to GHRH(1-29), 30 min (GH release [2])	GH releasing potency in vivo relative to JI-38 (=1) (GH release [3]; 15 min after)	GH releasing potency in vivo relative to JI-38 (=1) (GH release [3]; 30 min after)	GH releasing potency relative to JI-38 (=1) (GH release [5]; 15 min after)	GH releasing potency relative to JI-38 (=1) (GH release [5]; 30 min after)	other results
–	–	–	CCCC[C@H](NC(=O)[C@@H](NC(=O)[C@H](CC(=O)O)NC(=O)[C@H](CCC(N)=O)NC(=O)[C@H](CC(C)C)NC(=O)[C@H](CC(C)C)NC(=O)[C@H](CCCN)NC(=O)[C@H](CCCNC(=N)N)NC(=O)[C@H](C)NC(=O)[C@H](CO)NC(=O)[C@H](CC(C)C)NC(=O)[C@H](CCC(N)=O)NC(=O)[C@H](CC)NC(=O)[C@H](CC(C)C)NC(=O)[C@@H](NC(=O)[C@H](CCCN)NC(=O)[C@H](CCCNC(=N)N)NC(=O)[C@H](Cc1ccc(O)cc1)NC(=O)[C@H](CO)NC(=O)[C@@H](NC(=O)[C@@H](NC(=O)[C@H](Cc1ccccc1)NC(=O)[C@@H](NC(=O)[C@H](C)NC(=O)[C@H](CC(=O)O)NC(=O)[C@H](C)NC(=O)CCc1ccc(O)cc1)[C@@H](C)CC)[C@@H](C)O)[C@@H](C)O)C(C)C)[C@@H](C)CC)C(=O)N[C@@H](CC(=O)O)C(=O)NCCCCNC(=N)N [JI-36, reference compound] (Desaminotyrosyl-ADAIFTTSYR[Orn]VL[Abu]QLSAR[Orn]LLQDI[Nle]D-Agmatine; N-terminus and C-terminus assumed)	–	–	–	–	–	–	–	–	–	Relative affinity (Binding potency) vs GHRH (GHRH receptor [1]): 3.25
0.96	2.68	3.02	CCCC[C@H](NC(=O)[C@@H](NC(=O)[C@H](CC(=O)O)NC(=O)[C@H](CCC(N)=O)NC(=O)[C@H](CC(C)C)NC(=O)[C@H](CC(C)C)NC(=O)[C@H](CCCN)NC(=O)[C@H](CCCNC(=N)N)NC(=O)[C@H](C)NC(=O)[C@H](CO)NC(=O)[C@H](CC(C)C)NC(=O)[C@H](CCC(N)=O)NC(=O)[C@H](CC)NC(=O)[C@H](CC(C)C)NC(=O)[C@@H](NC(=O)[C@H](CCCN)NC(=O)[C@H](CCCNC(=N)N)NC(=O)[C@H](Cc1ccc(O)cc1)NC(=O)[C@H](CO)NC(=O)[C@H](CC(N)=O)NC(=O)[C@@H](NC(=O)[C@H](Cc1ccccc1)NC(=O)[C@@H](NC(=O)[C@H](C)NC(=O)[C@H](CC(=O)O)NC(=O)[C@@H](CC)NC(=O)CCc1ccc(O)cc1)[C@@H](C)CC)[C@@H](C)O)C(C)C)[C@@H](C)CC)C(=O)N[C@@H](CO)C(=O)N[C@@H](CCCNC(=N)N)C(=O)NCCCC(N)=O [Peptide P-25504, [Dat^1, D-Abu^2, Orn^12, Abu^15, Orn^21, Nle^27, Gab^30]hGHRH(1-30)NH2] (Desaminotyrosyl-[dAbu]DAIFTNSYR[Orn]VL[Abu]QLSAR[Orn]LLQDI[Nle]SR[GABA]-NH2)	25.4 ± 4.1 ng/mL	200.0 ± 10.7 ng/mL	130.0 ± 19.1 ng/mL	52.6	113.8	1.65	1.37	0.78	0.98	Relative potency compared to JI-38, 15 min (GH release [2]): 0.83; Relative potency compared to JI-38, 30 min (GH release [2]): 1.02; GH releasing potency in vivo relative to JI-38 (=1) (GH release [3]; 5 min after): 1.66; Relative potency, 5 min (GH release [4]; 5 min, JI-38 = 1): 1.55; Relative potency, 15 min (GH release [4]; 15 min, JI-38 = 1): 1.50; Serum GH level at selected time after injection (ng/ml), 0 min (GH release [4]; dose 1 μg/kg, 0 min, mean ± SEM): 25.7 ± 6.3 ng/mL; Serum GH level at selected time after injection (ng/ml), 5 min (GH release [4]; dose 1 μg/kg, 5 min, mean ± SEM): 832 ± 214 ng/mL; Serum GH level at selected time after injection (ng/ml), 15 min (GH release [4]; dose 1 μg/kg, 15 min, mean ± SEM): 297 ± 45.6 ng/mL
2.80	7.81	6.12	CCCC[C@H](NC(=O)[C@@H](NC(=O)[C@H](CC(=O)O)NC(=O)[C@H](CCC(N)=O)NC(=O)[C@H](CC(C)C)NC(=O)[C@H](CC(C)C)NC(=O)[C@H](CCCN)NC(=O)[C@H](CCCNC(=N)N)NC(=O)[C@H](C)NC(=O)[C@H](CO)NC(=O)[C@H](CC(C)C)NC(=O)[C@H](CCC(N)=O)NC(=O)[C@H](CC)NC(=O)[C@H](CC(C)C)NC(=O)[C@@H](NC(=O)[C@H](CCCN)NC(=O)[C@H](CCCNC(=N)N)NC(=O)[C@H](Cc1ccc(O)cc1)NC(=O)[C@H](CO)NC(=O)[C@H](CCC(N)=O)NC(=O)[C@@H](NC(=O)[C@H](Cc1ccccc1)NC(=O)[C@@H](NC(=O)[C@H](C)NC(=O)[C@H](CC(=O)O)NC(=O)[C@@H](C)NC(=O)[C@H](Cc1ccc(O)cc1)NC)[C@@H](C)CC)[C@@H](C)O)C(C)C)[C@@H](C)CC)C(=O)N[C@@H](CC(=O)O)C(=O)N[C@@H](CCCNC(=N)N)C(=O)NCCCCC(N)=O [Peptide P-22326, [N—Me-Tyr^1, D-Ala^2, Gln^8, Orn^12, Abu^15, Orn^21, Nle^27, Asp^28, Apa^30] hGHRH(1-30)NH2] (H-[NMeY][dA]DAIFTQSYR[Orn]VL[Abu]QLSAR[Orn]LLQDI[Nle]DR[Ava]-NH2)	43.7 ± 6.4 ng/mL	309.2 ± 33.5 ng/mL	225.9 ± 19.8 ng/mL	92.7	303.4	0.28	0.94	1.76	2.31	GH-releasing potency after s.c. administration (in words) (GH release [2]): significantly higher potencies at 30 minutes than at 15 minutes; Relative potency compared to JI-38, 15 min (GH release [2]; listed as MR-326): 1.5 and 1.47; Relative potency compared to JI-38, 30 min (GH release [2]; listed as MR-326): 2.7 and 2.71; Stimulation of growth hormone levels after subcutaneous administration (in words) (GH release [5]; s.c.): stimulated greater growth hormone levels than hGHRH or JI-38
